We go through 15 molecules from US11884652B2, “Tetrazole derivatives as TRPA1 inhibitors” (Boehringer Ingelheim International GmbH, priority 2020, dated 2024).

The nature of data set [1]: Assay C: Hepatocyte clearance. The format is in vitro ADME, human. Particulars: hepatocyte suspension, 1 μM compound, 6 h; predicted clearance as % of hepatic blood flow. The method, then:
Assay C: Hepatocyte Clearance
The metabolic degradation of the test compound is assayed in a hepatocyte suspension. Hepatocytes (cryopreserved) are incubated in Dulbecco's modified eagle medium (supplemented with 3.5 μg glucagon/500 mL, 2.5 mg insulin/500 mL and 3.75 mg/500 mL hydrocortison) containing 5% or 50% species serum.
The cells are incubated for six hours (incubator, orbital shaker) and samples ([…]) are taken at 0, 0.5, 1, 2, 4 and 6 hours. Samples are transferred into acetonitrile and pelleted by centrifugation (5 min). The supernatant is transferred to a new 96-deepwell plate, evaporated under nitrogen and resuspended.
Decline of Parent Compound is Analyzed by HPLC-MS/MS
CLint is calculated as follows CL_[…]=Dose/AUC=(C0/CD)/(AUD+clast/k)×1000/60. C0: initial concentration in the incubation [μM], CD: cell density of vital cells [10e6 cells/mL], AUD: area under the data [μM×h], clast: concentration of last data point [μM], k: slope of the regression line for parent decline [h−1].
The calculated in vitro hepatic intrinsic clearance can be scaled up to the intrinsic in vivo hepatic Clearance and used to predict hepatic in vivo blood clearance (CL) by the use of a liver model (well stirred model). CL_[…]_INVIVO [ml/min/kg]=(CL_[…] [μL/min/10e6 cells]×hepatocellularity [10e6 cells/g liver]×liver factor [g/kg bodyweight])/1000 CL[ml/min/kg]=CL_[…]_INVIVO [ml/min/kg]×hepatic blood flow [ml/min/kg]/(CL_[…]_INVIVO [ml/min/kg]+hepatic blood flow [ml/min/kg]) Qh[%]=CL[ml/min/kg]/hepatic blood flow [ml/min/kg])
(§1) Hepatocellularity, human: 120×10e6 cells/g liver
(§2) Liver factor, human: 25.7 g/kg bodyweight
(§3) Blood flow, human: 21 ml/(min×kg)

Data set [2] is described as follows: Assay B: Microsomal clearance. The following applies: pooled liver microsomes 1 mg/ml, 1 μM compound, NADPH, 37° C.; clearance as % of hepatic blood flow. It is filed as in vitro ADME, human. The method, then: Assay B: Microsomal Clearance:
The metabolic degradation of the test compound is assayed at 37° C. with pooled liver microsomes. The final incubation volume of 100 μl per time point contains TRIS buffer pH 7.6 at RT (0.1 M), magnesium chloride (5 mM), microsomal protein (1 mg/ml) and the test compound at a final concentration of 1 μM.
Following a short preincubation period at 37° C., the reactions are initiated by addition of beta-nicotinamide adenine dinucleotide phosphate, reduced form (NADPH, 1 mM) and terminated by transferring an aliquot into solvent after different time points (0, 5, 15, 30, 60 min). Additionally, the NADPH-independent degradation is monitored in incubations without NADPH, terminated at the last time point. The [%] remaining test compound after NADPH independent incubation is reflected by the parameter c(control) (metabolic stability). The quenched incubations are pelleted by centrifugation (10000 g, 5 min).
An aliquot of the supernatant is assayed by LC-MS/MS for the amount of parent compound. The half-life (t½ INVITRO) is determined by the slope of the semilogarithmic plot of the concentration-time profile.
The intrinsic clearance (CL_[…]) is calculated by considering the amount of protein in the incubation: CL_[…] [μl/min/mg protein]=(Ln 2/(half-life [min]*protein content [mg/ml]))*1000 CL_[…]_INVIVO [ml/min/kg]=(CL_[…] [μL/min/mg protein]×MPPGL [mg protein/g liver]×liver factor [g/kg bodyweight])/1000 Qh[%]=CL[ml/min/kg]/hepatic blood flow [ml/min/kg])
as §1, §2, §3
On the technique in general: Liver microsomes are a subcellular fraction often used to study metabolism.

Data set [3] has as its target T1, human TRPA1 ion channel (Homo sapiens, UniProt O75762).
T1 construct: host or cells: HEK293
Nature of the data set: Assay A: TRPA1 assay (FLIPR, AITC-induced calcium, HEK293 cells). Particulars: read-out: hTRPA1 IC50. The format is cell-based. The method, then: A human HEK293 cell line over-expressing the human TRPA1 ion channel (Perkin Elmer, Product No. AX-004-PCL) is used as a test system for compound efficacy and potency. Compound activity is determined by measuring the effect of compounds on intracellular calcium concentration induced by AITC (Allylisothiocyanat) agonism in a FLIPRtetra system (Molecular Devices).
The cells are obtained as frozen cells in cryo-vials and stored until use at −150° C. Cells are grown in culture medium (MEM/EBSS medium with 10% FCS and 0.4 mg/ML Geneticin). […] For sub-culturing cells are detached from flasks by Versene. At the day before the assay, cells are detached, washed twice with medium (MEM/EBSS medium with 10% FCS) and 20000 cells in 20 μl/well are seeded to Poly D-Lysin biocoated 384-well plates (black, clear bottom, Cat. 356697) from Corning. Plates are incubated for 24 hours at 37° C./5% CO2 before use in the assay.
The test compounds are dissolved in 100% DMSO at a concentration of 10 mM and in a first step diluted in DMSO to a concentration of 5 mM, followed by serial dilution steps in 100% DMSO. Dilution factor and number of dilution steps may vary according to needs. Typically 8 different concentrations by 1:5 dilutions are prepared, further intermediate dilutions (1:20) of the substances are carried out with HBSS/HEPES buffer (1×HEPES, Cat. 14065 from Gibco, 20 mM HEPES, Cat. 83264 from SIGMA, 0.1% BSA Cat. 11926 from Invitrogen, pH 7.4
At the assay day cells are washed 3× with assay puffer, 20 μL buffer remaining in the wells after washing. 10 μL Ca6 kit (Cat. R8191 MolecularDevices) loading buffer in HBSS/HEPES is added to the cells and the plates are incubated with lid for 120 minutes at 37°/5% CO2. 10 μL of compound or controls in HBSS/HEPES buffer/5% DMSO from the intermediate dilution plate are carefully added to the wells. […] Finally 10 μL of the agonist AITC 50 μM dissolved in HBSS/HEPES buffer/0.05% DMSO (final concentration 10 μM) is added to the wells followed by an additional read on the FLIPRtetra device for 10 minutes. The area under the signal curve (AUC) after AITC addition is used for IC50/% inhibition calculations
Data Evaluation and Calculation:
Each assay microtiter plate contains wells with vehicle (1% DMSO) controls instead of compound as controls for AITC induced luminescence (100% CTL; high controls) and wells with vehicle controls without AITC as controls for non-specific changes in luminescence (0% CTL; low controls).
The analysis of the data is performed by the calculation of the area under signal curve of the individual wells. Based on this values the % value for the measurement of each substance concentration is calculated (AUC(sample)−AUC(low))*100/(AUC(high)−AUC(low)) using MegaLab software (in house development). The IC50 values are calculated from the % control values using MegaLab software. Calculation: [y=(ad)/(1+(x/c)^b)+d], a=low value, d=high value; x=conc M; c=IC50 M; b=hill; y=% ctrl

T1 sequence (O75762 whole entry): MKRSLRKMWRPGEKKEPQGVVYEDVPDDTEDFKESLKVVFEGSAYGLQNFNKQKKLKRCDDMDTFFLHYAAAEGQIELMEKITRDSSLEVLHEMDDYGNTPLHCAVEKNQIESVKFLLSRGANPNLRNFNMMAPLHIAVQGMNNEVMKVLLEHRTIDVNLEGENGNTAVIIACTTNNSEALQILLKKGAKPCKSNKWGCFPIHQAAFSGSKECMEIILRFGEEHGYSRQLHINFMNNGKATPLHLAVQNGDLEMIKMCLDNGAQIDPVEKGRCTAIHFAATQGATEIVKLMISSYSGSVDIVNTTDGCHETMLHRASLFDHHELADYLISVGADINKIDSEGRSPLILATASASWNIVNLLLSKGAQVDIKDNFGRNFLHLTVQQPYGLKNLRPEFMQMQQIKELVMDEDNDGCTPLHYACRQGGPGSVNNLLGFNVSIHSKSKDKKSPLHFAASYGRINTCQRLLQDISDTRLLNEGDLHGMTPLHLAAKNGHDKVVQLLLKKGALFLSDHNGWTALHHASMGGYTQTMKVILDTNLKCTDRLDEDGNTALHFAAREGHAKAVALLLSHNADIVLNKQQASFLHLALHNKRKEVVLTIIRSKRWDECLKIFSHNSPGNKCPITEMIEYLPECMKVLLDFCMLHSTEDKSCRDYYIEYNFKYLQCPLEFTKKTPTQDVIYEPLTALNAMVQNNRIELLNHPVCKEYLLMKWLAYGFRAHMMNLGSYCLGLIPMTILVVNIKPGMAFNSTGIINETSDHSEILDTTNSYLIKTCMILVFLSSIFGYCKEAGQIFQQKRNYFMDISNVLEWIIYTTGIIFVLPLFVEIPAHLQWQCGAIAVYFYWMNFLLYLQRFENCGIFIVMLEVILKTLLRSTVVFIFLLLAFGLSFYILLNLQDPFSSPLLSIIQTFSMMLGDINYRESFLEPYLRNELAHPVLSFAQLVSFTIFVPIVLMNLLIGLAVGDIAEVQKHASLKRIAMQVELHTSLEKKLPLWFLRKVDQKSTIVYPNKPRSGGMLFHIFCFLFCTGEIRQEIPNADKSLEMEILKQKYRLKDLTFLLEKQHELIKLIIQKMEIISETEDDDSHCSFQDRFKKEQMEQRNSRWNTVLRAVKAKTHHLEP

In general, IC50 refers to the concentration that inhibits the measured activity by half. For `Cn1c(=O)c(C(=O)NCC(F)F)cn(Cc2nnn(C[C@H](O)c3ccc(Cl)cc3)n2)c1=O` [Example 23], the “human Hepatocytes [% Qh]” value in data set [1] is given as 15 % Qh. In addition, the “human LM [% Qh]” value in data set [2] is on record as less than 23 % Qh. Further, the IC50 in data set [3] is 39 nM.
In the same order, the values of `COCCn1c(=O)c(C(N)=O)cn(Cc2nnn(C[C@H](O)c3ccc(Cl)cc3)n2)c1=O` [Example 21] are 15 % Qh, less than 23 % Qh and 258 nM.
`Cn1c(=O)c(C(N)=O)cn(Cc2nnn(C[C@H](O)c3cc4ccccc4s3)n2)c1=O` [Example 2]: in data set [1], the “human Hepatocytes [% Qh]” value was 13 % Qh. In data set [2], the “human LM [% Qh]” value is reported as less than 23 % Qh. In addition, the IC50 in data set [3] came out at 18 nM.
In the case of `Cn1c(=O)c(C(N)=O)cn(Cc2nnn(C[C@H](O)c3cc4ccc(F)cc4o3)n2)c1=O` [Example 12], in data set [1], the “human Hepatocytes [% Qh]” value is listed as 16 % Qh. In addition, the “human LM [% Qh]” value in data set [2] is given as less than 23 % Qh. Moreover, the IC50 in data set [3] amounted to 110 nM.
Turning to `Cn1c(=O)c(C(=O)NCC2CC2)cn(Cc2nnn(C[C@H](O)c3ccc(Cl)cc3)n2)c1=O` [Example 32], in data set [1], the “human Hepatocytes [% Qh]” value is listed as 45 % Qh. Moreover, the “human LM [% Qh]” value in data set [2] was 52 % Qh. The IC50 in data set [3] came to 92 nM.
For `Cn1c(=O)c(C(N)=O)cn(Cc2nnn(C[C@H](O)c3ccc4oc(F)cc4c3)n2)c1=O` [Example 4], in data set [1], the “human Hepatocytes [% Qh]” value was 8 % Qh. For the same molecule, in data set [2], the “human LM [% Qh]” value is less than 23 % Qh. Also, the IC50 in data set [3] worked out at 34 nM.
In the same order, the values of `Cn1c(=O)c(C(=O)NCCn2ccnc2)cn(Cc2nnn(C[C@H](O)c3ccc(Cl)cc3)n2)c1=O` [Example 29] are 27 % Qh, 53 % Qh and 229 nM.
In the case of `Cn1c(=O)c(C(N)=O)cn(Cc2nnn(C[C@H](O)c3cc4cc(F)ccc4o3)n2)c1=O` [Example 8], in data set [1], the “human Hepatocytes [% Qh]” value was 6 % Qh. Also, in data set [2], the “human LM [% Qh]” value is reported as less than 23 % Qh. For the same molecule, in data set [3], the IC50 was 59 nM.
In the same order, the values of `Cn1c(=O)c(C(=O)NCCn2cccn2)cn(Cc2nnn(C[C@H](O)c3ccc(Cl)cc3)n2)c1=O` [Example 35] are 19 % Qh, less than 23 % Qh and 33 nM.
Take `Cn1c(=O)c(C(N)=O)cn(Cc2nnn(C[C@H](O)c3ccc(Cl)s3)n2)c1=O` [Example 10]: in data set [1], the “human Hepatocytes [% Qh]” value is 15 % Qh. In addition, in data set [2], the “human LM [% Qh]” value is given as less than 23 % Qh. The IC50 in data set [3] was 92 nM.
In the same order, the values of `Cn1c(=O)c(C(N)=O)cn(Cc2nnn(C[C@H](O)c3ccc4c(c3)OCO4)n2)c1=O` [Example 11] are less than 4 % Qh, less than 23 % Qh and 105 nM.
For `COc1ccc([C@@H](O)Cn2nnc(Cn3cc(C(N)=O)c(=O)n(C)c3=O)n2)cc1` [Example 16] the same measures were less than 4 % Qh, less than 23 % Qh and 160 nM.
In the case of `CCn1c(=O)c(C(N)=O)cn(Cc2nnn(C[C@H](O)c3ccc(Cl)cc3)n2)c1=O` [Example 19], the “human Hepatocytes [% Qh]” value in data set [1] is 5 % Qh. The “human LM [% Qh]” value in data set [2] was less than 23 % Qh. Besides, in data set [3], the IC50 is 62 nM.
On to `Cn1c(=O)c(C(N)=O)cn(Cc2nnn(C[C@H](O)c3cc4cc(Cl)ccc4o3)n2)c1=O` [Example 6], for which the “human Hepatocytes [% Qh]” value in data set [1] is reported as 15 % Qh. For the same molecule, the “human LM [% Qh]” value in data set [2] is less than 23 % Qh. Also, the IC50 in data set [3] came out at 42 nM.
As to `Cn1c(=O)c(C(=O)NCCS(C)(=O)=O)cn(Cc2nnn(C[C@H](O)c3ccc(Cl)cc3)n2)c1=O` [Example 28], the “human Hepatocytes [% Qh]” value in data set [1] is reported as less than 4 % Qh. Also, in data set [2], the “human LM [% Qh]” value is listed as less than 23 % Qh. Further, in data set [3], the IC50 was 186 nM.
